Legend:
[1] = system: epinephrine-increased blood-pressure (anti-α effect); assay: Antiadrenergic effect: anti-α effect (reduction of epinephrine-increased blood-pressure); format: in vivo; conditions: dog
Experimental: (§1) The purpose of this test was to determine the capacity of the compounds under study to reduce epinephrine-increased blood-pressure (anti-α effect) and epinephrine-accelerated heart rate (anti-β effect) in the dog previously anaesthetized with pentobarbital and atropinized.
(§2) For each dog, the dose of epinephrine was first determined which provoked a reproductible increase by about 100 mm. Hg in the arterial pressure (between 5 and 10 μg/kg). After that, the dose of epinephrine so determined was administered followed by a dose by intravenous route of the compound to be studied. The percentage of reduction of the hypertension provoked by the compound under study in comparison with the hypertension previously obtained (about 100 mm. Hg) was then registered.
(§3) The percentage of reduction of the epinephrine-induced acceleration of heart-rate produced by the compound under study in comparison with the tachycardia previously measured (about 70 beats) was then registered. In both cases, the results were expressed as follows: […]
(§4) + for a <50%-reduction of the increase in pressure or cardiac frequency
(§5) ++ for a ≥50%-reduction of the increase in pressure or cardiac frequency
(§6) +++ for a subtotal reduction of the increase in pressure or cardiac frequency

[2] = system: epinephrine-accelerated heart rate (anti-β effect); assay: Antiadrenergic effect: anti-β effect (reduction of epinephrine-accelerated heart rate); format: in vivo; conditions: dog
Experimental: as §1, §2, §3, §4, §5, §6

[3] = Canis lupus familiaris, iv, dose 10 mg/kg i.v.
[4] = Canis lupus familiaris, iv, dose 5 mg/kg i.v.
[5] = Canis lupus familiaris, iv, dose 7.5 mg/kg i.v.

SMILES: CCCN(CCC)CCCOc1c(Cl)cc(C(=O)c2c(CC)c(Cl)c3ccccn23)cc1Cl [Cl/Cl/Cl/C2H5/n-C3H7/3, 1-Chloro-2-ethyl-3-[4-(3-di-n-propylaminopropyl)-oxy-3,5-dichloro-benzoyl]-indolizine]
- inhibition in vivo at 10 mg/kg [1, 3]: > 50%
- inhibition in vivo at 10 mg/kg [2, 3]: > 50%

SMILES: CCCCN(CCCC)CCCOc1c(Cl)cc(C(=O)c2c(-c3ccccc3)c(Cl)c3ccccn23)cc1Cl [Cl/Cl/Cl/drawing 37/n-C4H9/3, 1-Chloro-2-phenyl-3-[4-(3-di-n-butylaminopropyl)-oxy-3,5-dichloro-benzoyl]-indolizine]
- Anti-α effect ([1]; dose 10 mg/kg i.v.): +++
- inhibition in vivo at 10 mg/kg [2, 3]: > 50%

SMILES: CCCN(CCC)CCCOc1ccc(C(=O)c2c(-c3cccc(Br)c3)c(Cl)c3ccccn23)cc1Cl [Cl/Cl/H/drawing 33/n-C3H7/3, 1-Chloro-2-(3-bromo-phenyl)-3-[4-(3-di-n-propylaminopropyl)-oxy-3-chloro-benzoyl]-indolizine]
- Anti-α effect ([1]; dose 8 mg/kg i.v.): +++
- inhibition in vivo at 8 mg/kg ([2]; Canis lupus familiaris, iv, dose 8 mg/kg i.v.): > 50%

SMILES: CCCCN(CCCC)CCCOc1ccc(C(=O)c2c(-c3ccc(Cl)cc3)c(Cl)c3ccccn23)cc1 [Cl/H/H/drawing 34/n-C4H9/3]
- Anti-α effect ([1]; dose 10 mg/kg i.v.): +++
- inhibition in vivo at 10 mg/kg [2, 3]: > 50%

SMILES: CCCN(CCC)CCCOc1ccc(C(=O)c2c(-c3ccc(Cl)cc3)c(Cl)c3ccccn23)cc1 [Cl/H/H/drawing 35/n-C3H7/3]
- inhibition in vivo at 5 mg/kg [1, 4]: > 50%
- inhibition in vivo at 5 mg/kg [2, 4]: < 50%

SMILES: CCCCN(CCCC)CCCOc1ccc(C(=O)c2c(-c3ccccc3)c(Cl)c3ccccn23)cc1 [Cl/H/H/drawing 36/n-C4H9/3]
- Anti-α effect ([1]; dose 5 mg/kg i.v.): +++
- Anti-β effect ([2]; dose 5 mg/kg i.v.): +++

SMILES: CCCCN(CCCC)CCCOc1ccc(C(=O)c2c(CCC)c(Cl)c3ccccn23)cc1 [Cl/H/H/n-C3H7/n-C4H9/3, 1-Chloro-2-n-propyl-3-[4-(3-di-n-butylaminopropyl)-oxy-benzoyl]-indolizine]
- Anti-α effect ([1]; dose 7.5 mg/kg i.v.): +++
- Anti-β effect ([2]; dose 7.5 mg/kg i.v.): +++

SMILES: CCCN(CCC)CCCOc1c(Br)cc(C(=O)c2c(-c3ccc(Br)cc3)cc3ccccn23)cc1Br [H/Br/Br/drawing 41/n-C3H7/3]
- Anti-α effect ([1]; dose 10 mg/kg i.v.): +++
- Anti-β effect ([2]; dose 10 mg/kg i.v.): +++

SMILES: CCCCN(CCCC)CCCOc1c(Br)cc(C(=O)c2c(-c3ccccc3)cc3ccccn23)cc1Br [H/Br/Br/drawing 42/n-C4H9/3]
- inhibition in vivo at 10 mg/kg [1, 3]: > 50%
- inhibition in vivo at 10 mg/kg [2, 3]: > 50%

SMILES: CCCCN(CCCC)CCCOc1ccc(C(=O)c2c(CC)cc3ccccn23)cc1Br [H/Br/H/C2H5/n-C4H9/3, 2-Ethyl-3-[4-(3-di-n-butylaminopropyl)-oxy-3-bromo-benzoyl]-indolizine]
- Anti-α effect ([1]; dose 7.5 mg/kg i.v.): +++
- inhibition in vivo at 7.5 mg/kg [2, 5]: > 50%

SMILES: CCCCN(CCCC)CCCOc1ccc(C(=O)c2c(-c3ccccc3)cc3ccccn23)cc1Br [H/Br/H/drawing 24/n-C4H9/3]
- Anti-α effect ([1]; dose 10 mg/kg i.v.): +++
- inhibition in vivo at 10 mg/kg [2, 3]: > 50%

SMILES: CCCN(CCC)CCCOc1ccc(C(=O)c2c(C(C)C)cc3ccccn23)cc1Br [H/Br/H/iso-C3H7/n-C3H7/3, 2-Isopropyl-3-[4-(3-di-n-propylaminopropyl)-oxy-3-bromo-benzoyl]-indolizine]
- Anti-α effect ([1]; dose 7.5 mg/kg i.v.): +++
- inhibition in vivo at 7.5 mg/kg [2, 5]: > 50%

SMILES: CCCCN(CCCC)CCCOc1ccc(C(=O)c2c(C(C)C)cc3ccccn23)cc1Br [H/Br/H/iso-C3H7/n-C4H9/3]
- Anti-α effect ([1]; dose 6 mg/kg i.v.): +++
- inhibition in vivo at 6 mg/kg ([2]; Canis lupus familiaris, iv, dose 6 mg/kg i.v.): > 50%

SMILES: CCCCc1cc2ccccn2c1C(=O)c1ccc(OCCCN(CCC)CCC)c(Br)c1 [H/Br/H/n-C4H9/n-C3H7/3, 2-n-Butyl-3-[4-(3-di-n-propylaminopropyl)-oxy-3-bromo-benzoyl]-indolizine]
- Anti-α effect ([1]; dose 5 mg/kg i.v.): +++
- inhibition in vivo at 5 mg/kg [2, 4]: > 50%

SMILES: CCCCN(CCCC)CCCOc1ccc(C(=O)c2c(CC)cc3ccccn23)cc1C [H/CH3/H/C2H5/n-C4H9/3, 2-Ethyl-3-[4-(3-di-n-butylaminopropyl)-oxy-3-methyl-benzoyl]-indolizine]
- Anti-α effect ([1]; dose 10 mg/kg i.v.): +++
- Anti-β effect ([2]; dose 10 mg/kg i.v.): +++
